≈ marks a conversion by molar mass, not a printed value. Like-named read-outs stand apart in the source and are kept apart here.
Legend:
pH-dependent solubility = format: physicochemical
Text: Although carvedilol's solubility is similarly pH-dependent and varying, it is not obvious from FIG. 1 as it rapidly undergoes in situ salt formation with the buffering agent such as citric, acetic, and hydrochloric acids and consequently, the observed solubility is that of the salt formed in-situ.

[1] = PK modeling (WinNonlin 1-compartment fit, Stella simulation) of 8 mg ondansetron hydrochloride IR tablet plasma data
Method: In order to assess the type of in vitro release profile needed to achieve a once-daily plasma concentration profile, a modeling exercise was performed using the pharmacokinetic parameters for ondansetron hydrochloride reported in “Ondansetron Absorption in Adults: Effect of Dosage Form, Food, and Antacids” in Journal of Pharmaceutical Sciences Vol. (1994) by Bozigian et al. Mean plasma concentrations achieved in 24 healthy, adult male volunteers, who received a single 8 mg ondansetron hydrochloride IR tablet in the fasted state, were used using the software program, WinNonlin™ Standard Version 2.1 to fit a 1-compartment first order model with a lag-time assuming first order elimination kinetics.
The primary parameters were then input into another software, Stella Version 6.01 using a previously established model with slight modifications. Different in vitro release profiles were generated, and from target once-daily release profiles, desired in vitro release (medium, target and fast) profiles were generated by deconvolution.

[2] = in vivo; cited from earlier work
[3] = Solubilities of weakly basic drugs in organic acid buffers
[4] = single 8 mg IR tablet, fasted, 1-compartment model fit
[5] = single 8 mg IR tablet, fasted, secondary parameter

SMILES: Nc1nnc(-c2cccc(Cl)c2Cl)c(N)n1 [Lamotrigine]
- solubility (physchem; pH 2.43, aqueous buffer): 4480 µg/mL (≈ 17500 µM)
- solubility (physchem; pH 3.33, aqueous buffer): 1770 µg/mL (≈ 6910 µM)
- solubility (physchem; pH 4.36, aqueous buffer): 1610 µg/mL (≈ 6290 µM)
- solubility (physchem; pH 4.97, aqueous buffer): 488 µg/mL (≈ 1910 µM)
- solubility (physchem; pH 5.66, aqueous buffer): 226 µg/mL (≈ 882 µM)
- solubility (physchem; pH 5.85, aqueous buffer): 197 µg/mL (≈ 769 µM)
- solubility (physchem; pH 6.5, aqueous buffer): 161 µg/mL (≈ 629 µM)

SMILES: COc1ccccc1OCCNCC(O)COc1cccc2[nH]c3ccccc3c12 (racemic) [Carvedilol]
- Solubility (mg/mL) of Carvedilol in Tartaric Acid (pH 2.12): 2.51 mg/mL
- Solubility (mg/mL) of Carvedilol in Tartaric Acid (pH 2.28): 1.36 mg/mL
- Solubility (mg/mL) of Carvedilol in Tartaric Acid (pH 3.64): 0.121 mg/mL
- Solubility (mg/mL) of Carvedilol in Tartaric Acid (pH 5.46): 0.105 mg/mL
- Solubility (mg/mL) of Carvedilol in Tartaric Acid (pH 5.9): 0.028 mg/mL

SMILES: Cc1nccn1CC1CCc2c(c3ccccc3n2C)C1=O.Cl.O.O (racemic) [Ondansetron Hydrochloride, (±) 1,2,3,9-tetrahydro-9-methyl-3-[(2-methyl-1H-imidazole-1-yl)methyl]-4H-carbazol-4-one monohydrochloride dihydrate]
- solubility (pH-dependent solubility; aqueous buffer, at pH 6.8): ~50 µg/mL
- ratio of optimal highest dose (mg) to the solubility (mg/mL) at pH 6.8 (pH-dependent solubility; optimal highest dose 16 or 24 mg, pH 6.8): 320
- t1/2 ([1]; male, human, plasma): 3.65 h
- Vd ([1]; single 8 mg IR tablet, fasted, 24 healthy adult male volunteers, 1-compartment first order model fit): 238.26
- Ka [1, 4]: 1.49 per hour
- Ke [1, 4]: 0.19 per hr
- Tlag [1, 4]: 0.41 h
- AUC [1, 5]: 170 ng·h/mL
- Cl [1, 5]: 46.06 L/h
- Cm [1, 5]: 0.0248 mg/L
- Tmax [1, 5]: 1.98 h
- elimination half-life [2]: approximately 3.8±1 hrs
- solubility ([3]; pH 2.01, aqueous buffer, Solubility of Ondansetron Hydrochloride, fumaric acid 5 mg/mL, start pH 2.13, end pH 2.01): 26900 µg/mL
- solubility ([3]; pH 2.14, aqueous buffer, Solubility of Ondansetron Hydrochloride, fumaric acid 2.5 mg/mL, start pH 2.26, end pH 2.14): 27000 µg/mL
- solubility ([3]; pH 2.4, aqueous buffer, Solubility of Ondansetron Hydrochloride, fumaric acid 1 mg/mL, start pH 2.48, end pH 2.40): 26100 µg/mL
- solubility ([3]; pH 2.75, aqueous buffer, Solubility of Ondansetron Hydrochloride, fumaric acid 0.25 mg/mL, start pH 2.79, end pH 2.75): 26200 µg/mL
- solubility ([3]; pH 3.49, aqueous buffer, Solubility of Ondansetron Hydrochloride, fumaric acid 0.05 mg/mL, start pH 3.19, end pH 3.49): 26000 µg/mL
- solubility ([3]; pH 3.49, aqueous buffer, solubility, buffer containing only 0.05 mg/mL of fumaric acid, unchanged up to 5 mg/mL): ~26000 µg/mL
- solubility ([3]; pH 4.05, aqueous buffer, Solubility of Ondansetron Hydrochloride, fumaric acid 0.01 mg/mL, start pH 3.64, end pH 4.05): 26100 µg/mL
- solubility ([3]; pH 4.33, aqueous buffer, Solubility of Ondansetron Hydrochloride, fumaric acid 0.0025 mg/mL, start pH 4.15, end pH 4.33): 26100 µg/mL

SMILES: OCCN(CCO)c1nc(N2CCCCC2)c2nc(N(CCO)CCO)nc(N3CCCCC3)c2n1 [Dipyridamole]
- solubility (pH-dependent solubility; aqueous buffer, at pH 6.8): 30 µg/mL (≈ 59.4 µM)
- solubility (pH-dependent solubility; simulated gastric fluid, in 0.1N HCl): ~1000 µg/mL (≈ 1980 µM)
- solubility (physchem; pH 2.98, aqueous buffer): 6240 µg/mL (≈ 12400 µM)
- solubility (physchem; pH 3.42, aqueous buffer): 1800 µg/mL (≈ 3570 µM)
- solubility (physchem; pH 3.68, aqueous buffer): 930 µg/mL (≈ 1840 µM)
- solubility (physchem; pH 3.88, aqueous buffer): 650 µg/mL (≈ 1290 µM)
- solubility (physchem; pH 4.33, aqueous buffer): 270 µg/mL (≈ 535 µM)
- solubility (physchem; pH 4.71, aqueous buffer): 130 µg/mL (≈ 258 µM)
- solubility (physchem; pH 6.28, aqueous buffer): 6 µg/mL (≈ 11.9 µM)

SMILES: O=C1CN=C(c2ccccc2Cl)c2cc([N+](=O)[O-])ccc2N1 [Clonazepam]
- solubility enhancement by organic acid ([3]; Group C actives): less than 3 fold
- solubility ([3]; pH 2.3, aqueous buffer, solubility, fumaric acid buffer at pH 2.3 (higher acid concentration)): ~11.6 µg/mL (≈ 36.7 µM)
- solubility ([3]; pH 3.2, aqueous buffer, Solubility (mg/mL) of Clonazepam in Fumaric Acid, pH of buffer 3.2): 9.6 µg/mL (≈ 30.4 µM)
- solubility ([3]; pH 3.7, aqueous buffer, Solubility (mg/mL) of Clonazepam in Fumaric Acid, pH of buffer 3.7): 9.8 µg/mL (≈ 31 µM)
- solubility ([3]; pH 4.8, aqueous buffer, Solubility (mg/mL) of Clonazepam in Fumaric Acid, pH of buffer 4.8): 9.5 µg/mL (≈ 30.1 µM)
- solubility ([3]; pH 5.5, aqueous buffer, Solubility (mg/mL) of Clonazepam in Fumaric Acid, pH of buffer 5.5): 9.3 µg/mL (≈ 29.5 µM)
- solubility ([3]; pH 6.2, aqueous buffer, Solubility (mg/mL) of Clonazepam in Fumaric Acid, pH of buffer 6.2): 7.2 µg/mL (≈ 22.8 µM)
- solubility ([3]; pH 6.8, aqueous buffer, Solubility (mg/mL) of Clonazepam in Fumaric Acid, pH of buffer 6.8): 6.9 µg/mL (≈ 21.9 µM)
- solubility ([3]; pH 6.8, aqueous buffer, solubility, fumaric acid buffer at pH 6.8 (lower acid concentration)): ~6.9 µg/mL (≈ 21.9 µM)
- Solubility (mg/mL) of Clonazepam in Fumaric Acid ([3]; pH of buffer 2.3): 0.0116 mg/mL
- Solubility (mg/mL) of Clonazepam in Fumaric Acid ([3]; pH of buffer 2.8): 0.0103 mg/mL

— US20070190145A1, “DRUG DELIVERY SYSTEMS COMPRISING WEAKLY BASIC SELECTIVE SEROTONIN 5-HT3 BLOCKING AGENT AND ORGANIC ACIDS” (EURAND, INC., priority 2006, published 2007)
